Values joined by “and” are separate entries in the source; they are usually repeats but may differ in a detail not shown here. Equal values may be shown once.
Legend:
Settings in all cases: in vivo
[1] = test system: three grassy weeds (wild oat, watergrass, foxtail); parameters: species or system Avena fatua, Echinochloa crusgalli, Setaria viridis
[2] = test system: three broadleaf weeds (morning glory, mustard, velvetleaf); parameters: species or system Ipomoea purpurea, Brassica kaber, Abutilon theophrasti
[3] = test system: yellow nutsedge; parameters: species or system Cyperus esculentus
[4] = test system: three grassy weeds (wild oat, watergrass, foxtail); parameters: species or system Avena fatua, Echinochloa crusgalli, Setaria viridis; remark: listed apart in the source
[5] = test system: three broadleaf weeds (morning glory, mustard, velvetleaf); parameters: species or system Ipomoea purpurea, Brassica kaber, Abutilon theophrasti; remark: listed apart in the source
[6] = test system: yellow nutsedge; parameters: species or system Cyperus esculentus; remark: listed apart in the source

Question: For `CCCCN(CCCC)P(=O)(SCCC)N(CCCC)CCCC` [Compound 7, S-n-propyl-tetra(n-butyl) phosphorodiamide], which “% Control, Pre-emergence, GR avg.” value [1] is on record?
Answer: 0%

Question: And the “% Control, Pre-emergence, BL avg.” value [2]?
Answer: 0%

Question: What about the “% Control, Post-emergence, NS” value [3] of the same molecule?
Answer: 10% and 0%

Question: And the “% Control, Post-emergence, GR avg.” value [4]?
Answer: 90% and 93%

Question: What about the “% Control, Post-emergence, BL avg.” value [5] of the same molecule?
Answer: 90% and 100%

Question: What about the “% Control, Pre-emergence, NS” value [6] of the same molecule?
Answer: 0%

Question: For `CCCSP(=O)(N(CCC)CCC)N(C)c1ccc(OC)c(OC)c1` (stereo not drawn) [Compound 42], which “% Control, Pre-emergence, GR avg.” value [1] is on record?
Answer: 0%

Question: What about the “% Control, Pre-emergence, BL avg.” value [2] of the same molecule?
Answer: 0%

Question: What about the “% Control, Post-emergence, NS” value [3] of the same molecule?
Answer: 0%

Question: And the “% Control, Post-emergence, GR avg.” value [4]?
Answer: 20% and 23%

Question: What about the “% Control, Post-emergence, BL avg.” value [5] of the same molecule?
Answer: 50% and 83%

Question: What about the “% Control, Pre-emergence, NS” value [6] of the same molecule?
Answer: 0%

Question: What does the source list for `CCCSP(=O)(N(CCC)CCC)N(C)c1ccc(Br)cc1Br` (stereo not drawn) [Compound 37]?
Answer: % Control, Pre-emergence, GR avg. [1]: 0%; % Control, Pre-emergence, BL avg. [2]: 0%; % Control, Post-emergence, NS [3]: 0%; % Control, Post-emergence, GR avg. [4]: 20% and 10%; % Control, Post-emergence, BL avg. [5]: 80% and 83%; % Control, Pre-emergence, NS [6]: 0%

Question: With `CCCSP(=O)(N(CCC)CCC)N(C)c1ccc(Cl)cc1Cl` (stereo not drawn) [Compound 38] as the molecule, how does the “% Control, Pre-emergence, GR avg.” value [1] read?
Answer: 0%

Question: What about the “% Control, Pre-emergence, BL avg.” value [2] of the same molecule?
Answer: 0%

Question: And the “% Control, Post-emergence, NS” value [3]?
Answer: 0%

Question: And the “% Control, Post-emergence, GR avg.” value [4]?
Answer: 40%

Question: What about the “% Control, Post-emergence, BL avg.” value [5] of the same molecule?
Answer: 100%

Question: What about the “% Control, Pre-emergence, NS” value [6] of the same molecule?
Answer: 0%

Question: With `CCCCCN(CCCCC)P(=O)(SCCC)N(C)c1ccccc1C` (stereo not drawn) [Compound 15] as the molecule, how does the “% Control, Pre-emergence, GR avg.” value [1] read?
Answer: 0%

Question: What about the “% Control, Pre-emergence, BL avg.” value [2] of the same molecule?
Answer: 0%

Question: What about the “% Control, Post-emergence, NS” value [3] of the same molecule?
Answer: 5% and 0%

Question: What about the “% Control, Post-emergence, GR avg.” value [4] of the same molecule?
Answer: 50% and 47%

Question: And the “% Control, Post-emergence, BL avg.” value [5]?
Answer: 80% and 60%

Question: What about the “% Control, Pre-emergence, NS” value [6] of the same molecule?
Answer: 0%

Question: What does the source list for `CCCCN(CCCC)P(=O)(SCCC)N(C)c1ccc(Cl)cc1Cl` (stereo not drawn) [Compound 23]?
Answer: % Control, Pre-emergence, GR avg. [1]: 0%; % Control, Pre-emergence, BL avg. [2]: 0%; % Control, Post-emergence, NS [3]: 0%; % Control, Post-emergence, GR avg. [4]: 20% and 13%; % Control, Post-emergence, BL avg. [5]: 50% and 43%; % Control, Pre-emergence, NS [6]: 0%

Question: Which results are given for `CCCSP(=O)(N(CCC)CCC)N(C)c1ccc(F)c(F)c1` (stereo not drawn) [Compound 30]?
Answer: % Control, Pre-emergence, GR avg. [1]: 0%; % Control, Pre-emergence, BL avg. [2]: 0%; % Control, Post-emergence, NS [3]: 0%; % Control, Post-emergence, GR avg. [4]: 5% and 0%; % Control, Post-emergence, BL avg. [5]: 80% and 97%; % Control, Pre-emergence, NS [6]: 0%

Question: Which results are given for `CCCCCSP(=O)(N(CCCC)CCCC)N(CCCC)CCCC` [Compound 4]?
Answer: % Control, Pre-emergence, GR avg. [1]: 0%; % Control, Pre-emergence, BL avg. [2]: 0%; % Control, Post-emergence, NS [3]: 0%; % Control, Post-emergence, GR avg. [4]: 70% and 77%; % Control, Post-emergence, BL avg. [5]: 50% and 45%; % Control, Pre-emergence, NS [6]: 0%

Question: For `CCCSP(=O)(N(CCC)CCC)N(CCOC)CCOC` (stereo not drawn) [Compound 46], which “% Control, Pre-emergence, GR avg.” value [1] is on record?
Answer: 0%

Question: And the “% Control, Pre-emergence, BL avg.” value [2]?
Answer: 0%

Question: What about the “% Control, Post-emergence, NS” value [3] of the same molecule?
Answer: 0%

Question: What about the “% Control, Post-emergence, GR avg.” value [4] of the same molecule?
Answer: 30% and 47%

Question: What about the “% Control, Post-emergence, BL avg.” value [5] of the same molecule?
Answer: 60% and 73%

Question: And the “% Control, Pre-emergence, NS” value [6]?
Answer: 0%

Question: `CCCSP(=O)(N(CCC)CCC)N(CCC)c1ccccc1C(C)C` (stereo not drawn) [Compound 57] was tested. Which “% Control, Pre-emergence, GR avg.” value [1] did it give?
Answer: 0%

Question: And the “% Control, Pre-emergence, BL avg.” value [2]?
Answer: 0%

Question: What about the “% Control, Post-emergence, NS” value [3] of the same molecule?
Answer: 0%

Question: And the “% Control, Post-emergence, GR avg.” value [4]?
Answer: 20% and 16%

Question: And the “% Control, Post-emergence, BL avg.” value [5]?
Answer: 70% and 60%

Question: What about the “% Control, Pre-emergence, NS” value [6] of the same molecule?
Answer: 0%

Source: US5189169A (priority 1991, dated 1993)
